What was measured:
[1] = target: T1, Thyroid hormone receptor alpha (Homo sapiens, UniProt P10827); experiment: Binding affinity at human TRalpha1
T1 sequence (P10827 whole entry): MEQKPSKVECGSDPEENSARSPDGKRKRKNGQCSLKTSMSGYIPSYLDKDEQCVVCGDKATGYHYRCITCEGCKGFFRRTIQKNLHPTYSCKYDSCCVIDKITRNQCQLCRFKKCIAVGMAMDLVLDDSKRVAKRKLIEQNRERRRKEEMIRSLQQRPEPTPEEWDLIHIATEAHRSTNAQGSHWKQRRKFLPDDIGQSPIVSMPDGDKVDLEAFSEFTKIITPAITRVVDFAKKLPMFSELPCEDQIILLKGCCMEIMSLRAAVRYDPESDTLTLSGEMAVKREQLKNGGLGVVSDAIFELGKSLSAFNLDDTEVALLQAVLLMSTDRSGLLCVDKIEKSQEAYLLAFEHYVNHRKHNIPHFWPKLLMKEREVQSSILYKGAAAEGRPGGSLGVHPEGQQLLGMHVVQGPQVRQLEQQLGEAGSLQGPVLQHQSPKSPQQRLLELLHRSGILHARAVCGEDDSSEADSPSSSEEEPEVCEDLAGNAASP

[2] = target: T2, Thyroid hormone receptor beta (Homo sapiens, UniProt P10828); experiment: Binding affinity at human TRbeta1
T2 sequence (P10828 whole entry): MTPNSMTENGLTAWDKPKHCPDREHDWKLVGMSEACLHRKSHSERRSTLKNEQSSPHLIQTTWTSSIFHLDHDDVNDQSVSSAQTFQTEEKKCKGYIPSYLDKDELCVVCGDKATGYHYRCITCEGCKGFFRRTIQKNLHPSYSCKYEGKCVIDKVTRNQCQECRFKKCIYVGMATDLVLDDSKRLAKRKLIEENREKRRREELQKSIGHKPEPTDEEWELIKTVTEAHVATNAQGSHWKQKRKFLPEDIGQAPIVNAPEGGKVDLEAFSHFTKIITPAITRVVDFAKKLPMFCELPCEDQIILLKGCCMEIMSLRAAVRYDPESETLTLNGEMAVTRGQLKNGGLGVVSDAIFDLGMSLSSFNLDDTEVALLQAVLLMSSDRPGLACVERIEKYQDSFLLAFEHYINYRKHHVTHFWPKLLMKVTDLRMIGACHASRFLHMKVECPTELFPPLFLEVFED

Homo sapiens = species on record: Homo sapiens; experiment: Selectivity for human TR-alpha-1 to human TRbeta1
[3] = target: T1, Thyroid hormone receptor alpha; experiment: Displacement of L-T3 from human TR-alpha-1 expressed in CHOK1 cells assessed as TRAF-alpha-1-driven gene transactivation by alkaline phosphatase reporter gene assay; type: cell-based, CHO-K1
[4] = target: T3, Thyroid hormone receptor alpha (Homo sapiens) (UniProt P10827); experiment: (§1) Antagonist activity at human TR-alpha-1 expressed in CHO cells assessed as TRAF-alpha-1-driven gene transactivation by alkaline phosphatase reporter gene assay; type: functional, cell-based; design: scale not given: the % may be the effect or the level left
T3 sequence (whole entry): T1 sequence (P10827 whole entry)

[5] = target: T1, Thyroid hormone receptor alpha; experiment: as §1; type: functional, cell-based
Androgen receptor = target: T4, Androgen receptor (Homo sapiens, UniProt P10275); experiment: Binding affinity at AR
T4 sequence (P10275 whole entry): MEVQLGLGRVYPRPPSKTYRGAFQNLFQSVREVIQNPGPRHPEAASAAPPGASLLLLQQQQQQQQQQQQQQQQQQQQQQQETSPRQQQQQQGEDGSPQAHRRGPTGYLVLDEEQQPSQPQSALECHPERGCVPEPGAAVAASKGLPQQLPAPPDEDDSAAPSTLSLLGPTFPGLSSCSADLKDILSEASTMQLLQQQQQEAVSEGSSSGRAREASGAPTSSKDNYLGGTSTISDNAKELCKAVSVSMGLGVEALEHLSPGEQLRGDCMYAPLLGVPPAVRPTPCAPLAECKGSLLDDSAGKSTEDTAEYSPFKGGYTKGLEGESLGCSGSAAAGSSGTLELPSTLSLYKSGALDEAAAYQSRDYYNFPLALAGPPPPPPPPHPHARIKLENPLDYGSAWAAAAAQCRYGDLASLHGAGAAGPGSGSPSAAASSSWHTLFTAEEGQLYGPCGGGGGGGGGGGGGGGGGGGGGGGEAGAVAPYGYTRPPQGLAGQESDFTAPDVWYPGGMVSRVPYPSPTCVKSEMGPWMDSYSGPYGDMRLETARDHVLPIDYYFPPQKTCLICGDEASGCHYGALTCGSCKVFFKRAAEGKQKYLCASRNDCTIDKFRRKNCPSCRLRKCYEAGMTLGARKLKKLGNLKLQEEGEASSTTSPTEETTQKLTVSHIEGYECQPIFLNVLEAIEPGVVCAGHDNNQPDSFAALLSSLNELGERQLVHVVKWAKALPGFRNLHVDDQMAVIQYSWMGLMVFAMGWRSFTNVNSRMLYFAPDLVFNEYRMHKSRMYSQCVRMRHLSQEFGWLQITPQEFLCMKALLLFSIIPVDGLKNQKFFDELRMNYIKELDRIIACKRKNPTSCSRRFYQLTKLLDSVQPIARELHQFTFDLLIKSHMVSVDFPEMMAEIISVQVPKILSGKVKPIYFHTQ

Estrogen receptor = target: T5, Estrogen receptor (Homo sapiens, UniProt P03372); experiment: Binding affinity at ERalpha
T5 sequence (P03372 whole entry): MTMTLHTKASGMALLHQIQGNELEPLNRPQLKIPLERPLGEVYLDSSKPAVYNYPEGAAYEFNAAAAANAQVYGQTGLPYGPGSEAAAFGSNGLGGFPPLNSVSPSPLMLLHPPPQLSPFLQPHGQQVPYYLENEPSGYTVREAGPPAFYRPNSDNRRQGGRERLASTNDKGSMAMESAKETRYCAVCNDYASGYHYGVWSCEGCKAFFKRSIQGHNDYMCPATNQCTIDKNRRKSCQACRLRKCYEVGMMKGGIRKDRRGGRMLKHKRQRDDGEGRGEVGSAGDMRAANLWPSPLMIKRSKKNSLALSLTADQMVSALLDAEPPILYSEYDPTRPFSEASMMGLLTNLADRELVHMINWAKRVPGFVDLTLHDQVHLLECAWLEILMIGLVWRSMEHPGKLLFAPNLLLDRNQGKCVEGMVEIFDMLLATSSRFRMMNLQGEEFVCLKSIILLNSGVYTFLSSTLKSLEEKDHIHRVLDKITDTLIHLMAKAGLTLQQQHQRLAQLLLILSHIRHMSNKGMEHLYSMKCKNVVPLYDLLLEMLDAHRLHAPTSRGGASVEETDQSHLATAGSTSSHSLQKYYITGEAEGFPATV

Glucocorticoid receptor = target: T6, Glucocorticoid receptor (Homo sapiens, UniProt P04150); experiment: Binding affinity at GR
T6 sequence (P04150 whole entry): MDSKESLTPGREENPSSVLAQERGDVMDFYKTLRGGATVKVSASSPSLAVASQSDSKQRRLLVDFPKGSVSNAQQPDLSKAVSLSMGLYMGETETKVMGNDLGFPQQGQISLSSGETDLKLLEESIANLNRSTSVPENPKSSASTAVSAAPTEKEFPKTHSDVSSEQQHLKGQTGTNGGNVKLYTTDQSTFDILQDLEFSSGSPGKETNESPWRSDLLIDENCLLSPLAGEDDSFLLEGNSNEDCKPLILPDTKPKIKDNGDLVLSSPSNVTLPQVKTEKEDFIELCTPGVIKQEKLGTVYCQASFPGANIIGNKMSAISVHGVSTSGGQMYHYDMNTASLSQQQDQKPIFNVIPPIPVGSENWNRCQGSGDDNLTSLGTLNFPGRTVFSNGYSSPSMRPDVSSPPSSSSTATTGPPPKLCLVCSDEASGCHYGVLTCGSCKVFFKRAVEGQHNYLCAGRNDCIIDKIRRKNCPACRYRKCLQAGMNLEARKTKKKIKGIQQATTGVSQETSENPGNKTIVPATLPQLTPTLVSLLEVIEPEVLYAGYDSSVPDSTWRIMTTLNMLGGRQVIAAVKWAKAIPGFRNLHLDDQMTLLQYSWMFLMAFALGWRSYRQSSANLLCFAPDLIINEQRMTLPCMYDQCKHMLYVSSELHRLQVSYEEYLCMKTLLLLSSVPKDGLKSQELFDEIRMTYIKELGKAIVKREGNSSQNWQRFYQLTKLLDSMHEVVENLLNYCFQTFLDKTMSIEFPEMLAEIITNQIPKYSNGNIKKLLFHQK

Progesterone receptor = target: T7, Progesterone receptor (Homo sapiens, UniProt P06401); experiment: Binding affinity at PR
T7 sequence (P06401 whole entry): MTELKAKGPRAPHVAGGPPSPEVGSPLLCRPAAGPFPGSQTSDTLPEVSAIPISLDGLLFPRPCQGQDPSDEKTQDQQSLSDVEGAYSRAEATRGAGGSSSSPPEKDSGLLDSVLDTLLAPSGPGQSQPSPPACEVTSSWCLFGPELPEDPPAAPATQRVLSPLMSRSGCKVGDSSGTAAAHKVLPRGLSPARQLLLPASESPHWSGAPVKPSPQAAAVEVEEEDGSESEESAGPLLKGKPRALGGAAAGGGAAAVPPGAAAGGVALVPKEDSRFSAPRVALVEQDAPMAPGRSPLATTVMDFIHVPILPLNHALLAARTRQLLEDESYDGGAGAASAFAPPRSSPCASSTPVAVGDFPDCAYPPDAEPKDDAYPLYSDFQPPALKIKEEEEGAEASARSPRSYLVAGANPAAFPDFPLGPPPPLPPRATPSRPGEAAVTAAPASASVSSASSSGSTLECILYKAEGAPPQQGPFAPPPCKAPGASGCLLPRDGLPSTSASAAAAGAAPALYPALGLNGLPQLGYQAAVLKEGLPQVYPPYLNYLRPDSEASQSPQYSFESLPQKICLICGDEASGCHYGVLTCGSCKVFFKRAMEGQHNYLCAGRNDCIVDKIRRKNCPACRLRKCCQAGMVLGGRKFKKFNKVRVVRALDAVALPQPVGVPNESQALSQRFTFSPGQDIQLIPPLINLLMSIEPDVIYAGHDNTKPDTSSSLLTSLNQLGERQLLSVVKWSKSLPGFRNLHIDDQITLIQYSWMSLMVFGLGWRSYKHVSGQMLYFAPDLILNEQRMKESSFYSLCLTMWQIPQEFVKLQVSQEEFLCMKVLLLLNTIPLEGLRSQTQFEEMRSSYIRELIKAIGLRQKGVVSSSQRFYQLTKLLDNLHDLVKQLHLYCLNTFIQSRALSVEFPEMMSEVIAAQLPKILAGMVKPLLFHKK

[6] = target: T8, Mineralocorticoid receptor (Homo sapiens, UniProt P08235); experiment: Binding affinity at MR
T8 sequence (P08235 whole entry): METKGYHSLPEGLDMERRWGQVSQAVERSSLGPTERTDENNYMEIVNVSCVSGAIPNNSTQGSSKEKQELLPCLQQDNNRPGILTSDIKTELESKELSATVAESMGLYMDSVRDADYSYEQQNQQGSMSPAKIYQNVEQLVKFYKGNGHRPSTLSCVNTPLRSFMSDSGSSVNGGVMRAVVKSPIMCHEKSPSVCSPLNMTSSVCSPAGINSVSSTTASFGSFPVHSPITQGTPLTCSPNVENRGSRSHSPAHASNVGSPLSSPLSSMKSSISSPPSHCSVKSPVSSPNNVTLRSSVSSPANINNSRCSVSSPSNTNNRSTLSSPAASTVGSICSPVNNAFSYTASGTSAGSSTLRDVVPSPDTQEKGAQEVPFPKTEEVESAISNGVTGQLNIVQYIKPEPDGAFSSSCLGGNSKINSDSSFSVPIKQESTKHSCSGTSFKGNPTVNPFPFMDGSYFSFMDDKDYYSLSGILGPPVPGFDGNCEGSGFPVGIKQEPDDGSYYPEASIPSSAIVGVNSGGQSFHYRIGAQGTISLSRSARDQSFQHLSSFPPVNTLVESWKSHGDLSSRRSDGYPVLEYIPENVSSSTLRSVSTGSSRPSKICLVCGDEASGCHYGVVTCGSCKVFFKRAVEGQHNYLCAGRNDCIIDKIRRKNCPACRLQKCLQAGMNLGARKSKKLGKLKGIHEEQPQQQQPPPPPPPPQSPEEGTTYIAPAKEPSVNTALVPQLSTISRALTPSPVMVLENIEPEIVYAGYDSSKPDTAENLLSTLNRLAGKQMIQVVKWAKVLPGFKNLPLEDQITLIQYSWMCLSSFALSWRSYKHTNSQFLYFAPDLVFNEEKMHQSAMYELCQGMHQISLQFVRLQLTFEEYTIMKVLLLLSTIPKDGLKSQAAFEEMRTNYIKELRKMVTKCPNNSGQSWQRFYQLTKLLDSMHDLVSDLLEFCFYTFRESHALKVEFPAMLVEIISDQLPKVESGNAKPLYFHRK

[7] = target: T2, Thyroid hormone receptor beta
Description: Antagonist activity at human TR-beta-1 expressed in CHO cells assessed as TRAF-beta-1-driven gene transactivation by alkaline phosphatase reporter gene assay

[8] = target: T2, Thyroid hormone receptor beta; experiment: Agonist activity at human TR-beta-1 expressed in CHO cells assessed as TRAF-beta-1-driven gene transactivation by alkaline phosphatase reporter gene assay; type: functional, cell-based
[9] = target: T1, Thyroid hormone receptor alpha
Description: Agonist activity at human TR-alpha-1 expressed in CHO cells assessed as TRAF-alpha-1-driven gene transactivation by alkaline phosphatase reporter gene assay

Compound	IC50 [1] [nM]	IC50 [2] [nM]	Ratio IC50 (Homo sapiens)	other results
Cc1ccccc1COc1c(Br)cc(CCC(=O)O)cc1Br	1300	200	3.8	
O=C(O)CCc1cc(Br)c(OCc2ccccc2)c(Br)c1	680	230	1.7	
Nc1cccc(COc2c(Br)cc(CCC(=O)O)cc2Br)c1	2600	820	4.5	
CCN(CC)c1cccc(COc2c(Br)cc(CCC(=O)O)cc2Br)c1	480	87	3.2	
O=C(O)CCc1cc(Br)c(OCc2cccc(Br)c2)c(Br)c1	99	60	0.97	IC50 [3]: 90 nM; Activity [4]: 80%; IC50 [5]: 380 nM; IC50 (Androgen receptor): 7700 nM; IC50 (Estrogen receptor): 29000 nM; IC50 (Glucocorticoid receptor): 14000 nM; IC50 (Progesterone receptor): 2500 nM; IC50 [6]: 8700 nM; IC50 [7]: 230 nM
Cc1ccc(COc2c(Br)cc(CCC(=O)O)cc2Br)cc1	600	360	0.98	

Now from value to compound, other results behind:

IC50 [1] [nM]	IC50 [2] [nM]	Ratio IC50 (Homo sapiens)	Compound	other results
370	160	1.4	O=C(O)CCc1cc(Br)c(OCc2cccc(C(F)(F)F)c2)c(Br)c1	
78	23	3.4	CCNc1cccc(COc2c(Br)cc(CCC(=O)O)cc2Br)c1	EC50 [8]: 49 nM; EC50 [9]: 23 nM
500	190	1.5	O=C(O)CCc1cc(Br)c(OCc2cccc(Cl)c2)c(Br)c1	
360	120	1.8	Cc1cccc(COc2c(Br)cc(CCC(=O)O)cc2Br)c1	
